Assays:
Type in all cases: functional
[1] = system: Staphylococcus aureus; assay: Antimicrobial activity against methicillin-resistant Staphylococcus aureus 547 measured on day 25 by macrodilution method; settings: Staphylococcus aureus, 547, 600 h
[2] = system: Staphylococcus aureus; assay: Antimicrobial activity against heterogeneous vancomycin-intermediate Staphylococcus aureus 168 measured on day 25 by macrodilution method; settings: Staphylococcus aureus, 168, 600 h
[3] = system: Staphylococcus aureus; assay: Antimicrobial activity against vancomycin-intermediate Staphylococcus aureus 1287 measured on day 40 by macrodilution method
[4] = system: Staphylococcus aureus; assay: Antimicrobial activity against heterogeneous vancomycin-intermediate Staphylococcus aureus 873 measured on day 40 by macrodilution method
[5] = system: Staphylococcus aureus; assay: Antimicrobial activity against vancomycin-resistant Staphylococcus aureus 509 measured on day 20 by macrodilution method; settings: Staphylococcus aureus, 509, 480 h
[6] = system: Staphylococcus aureus; assay: Antimicrobial activity against vancomycin-intermediate Staphylococcus aureus 1287 after 50 passages by macrodilution method
[7] = system: Staphylococcus aureus; assay: Antimicrobial activity against methicillin-susceptible Staphylococcus aureus 543 measured after 10 antibiotic-free subculturing by macrodilution method
[8] = system: Staphylococcus aureus; assay: Antimicrobial activity against vancomycin-intermediate Staphylococcus aureus 1287 measured on day 30 by macrodilution method
[9] = system: Staphylococcus aureus; assay: Antimicrobial activity against methicillin-resistant Staphylococcus aureus 525 measured on day 15 by macrodilution method; settings: Staphylococcus aureus, 525, 360 h
[10] = system: Staphylococcus aureus; assay: Antimicrobial activity against vancomycin-intermediate Staphylococcus aureus 1287 measured on day 25 by macrodilution method; settings: Staphylococcus aureus, 1287, 600 h
[11] = system: Staphylococcus aureus; assay: Antimicrobial activity against heterogeneous vancomycin-intermediate Staphylococcus aureus 168 measured on day 15 by macrodilution method; settings: Staphylococcus aureus, 168, 360 h
[12] = system: Staphylococcus aureus; assay: Antimicrobial activity against vancomycin-resistant Staphylococcus aureus 509 measured on day 40 by macrodilution method
[13] = system: Staphylococcus aureus; assay: Antimicrobial activity against vancomycin-resistant Staphylococcus aureus 510 measured on day 25 by macrodilution method; settings: Staphylococcus aureus, 510, 600 h
[14] = system: Staphylococcus aureus; assay: Antimicrobial activity against methicillin-resistant Staphylococcus aureus 525 measured on day 25 by macrodilution method; settings: Staphylococcus aureus, 525, 600 h
[15] = system: Staphylococcus aureus; assay: Antimicrobial activity against vancomycin-intermediate Staphylococcus aureus 1287 measured on day 35 by macrodilution method
[16] = system: Staphylococcus aureus; assay: Antimicrobial activity against methicillin-resistant Staphylococcus aureus 525 measured on day 20 by macrodilution method; settings: Staphylococcus aureus, 525, 480 h
[17] = system: Staphylococcus aureus; assay: Antimicrobial activity against heterogeneous vancomycin-intermediate Staphylococcus aureus 168 measured on day 40 by macrodilution method
[18] = system: Staphylococcus aureus; assay: Antimicrobial activity against methicillin-resistant Staphylococcus aureus 547 measured on day 45 by macrodilution method
[19] = system: Staphylococcus aureus; assay: Antimicrobial activity against methicillin-susceptible Staphylococcus aureus 540 measured on day 25 by macrodilution method; settings: Staphylococcus aureus, 540, 600 h
[20] = system: Staphylococcus aureus; assay: Antimicrobial activity against methicillin-susceptible Staphylococcus aureus 543 measured on day 15 by macrodilution method; settings: Staphylococcus aureus, 543, 360 h
[21] = system: Staphylococcus aureus; assay: Antimicrobial activity against vancomycin-resistant Staphylococcus aureus 509 measured on day 25 by macrodilution method; settings: Staphylococcus aureus, 509, 600 h
[22] = system: Staphylococcus aureus; assay: Antimicrobial activity against methicillin-resistant Staphylococcus aureus 525 measured on day 50 by macrodilution method
[23] = system: Staphylococcus aureus; assay: Antimicrobial activity against vancomycin-resistant Staphylococcus aureus 510 after 50 passages by macrodilution method
[24] = system: Staphylococcus aureus; assay: Antimicrobial activity against heterogeneous vancomycin-intermediate Staphylococcus aureus 873 measured on day 30 by macrodilution method
[25] = system: Staphylococcus aureus; assay: Antimicrobial activity against heterogeneous vancomycin-intermediate Staphylococcus aureus 873 after 50 passages by macrodilution method
[26] = system: Staphylococcus aureus; assay: Antimicrobial activity against vancomycin-intermediate Staphylococcus aureus 1287 measured on day 45 by macrodilution method
[27] = system: Staphylococcus aureus; assay: Antimicrobial activity against methicillin-resistant Staphylococcus aureus 525 measured on day 40 by macrodilution method
[28] = system: Staphylococcus aureus; assay: Antimicrobial activity against methicillin-resistant Staphylococcus aureus 547 measured on day 40 by macrodilution method
[29] = system: Staphylococcus aureus; assay: Antimicrobial activity against methicillin-susceptible Staphylococcus aureus 540 measured on day 30 by macrodilution method
[30] = system: Staphylococcus aureus; assay: Antimicrobial activity against vancomycin-resistant Staphylococcus aureus 509 measured after 10 antibiotic-free subculturing by macrodilution method
[31] = system: Staphylococcus aureus; assay: Antimicrobial activity against vancomycin-intermediate Staphylococcus aureus 1287 measured on day 20 by macrodilution method; settings: Staphylococcus aureus, 1287, 480 h
[32] = system: Staphylococcus aureus; assay: Antimicrobial activity against heterogeneous vancomycin-intermediate Staphylococcus aureus 873 measured on day 50 by macrodilution method
[33] = system: Staphylococcus aureus; assay: Antimicrobial activity against vancomycin-resistant Staphylococcus aureus 510 measured on day 35 by macrodilution method
[34] = system: Staphylococcus aureus; assay: Antimicrobial activity against methicillin-resistant Staphylococcus aureus 547 measured on day 20 by macrodilution method; settings: Staphylococcus aureus, 547, 480 h
[35] = system: Staphylococcus aureus; assay: Antimicrobial activity against vancomycin-resistant Staphylococcus aureus 510 measured on day 50 by macrodilution method
[36] = system: Staphylococcus aureus; assay: Antimicrobial activity against vancomycin-intermediate Staphylococcus aureus 1287 measured on day 10 by macrodilution method; settings: Staphylococcus aureus, 1287, 240 h
[37] = system: Staphylococcus aureus; assay: Antimicrobial activity against methicillin-susceptible Staphylococcus aureus 543 after 15 passages by macrodilution method
[38] = system: Staphylococcus aureus; assay: Antimicrobial activity against vancomycin-intermediate Staphylococcus aureus 1287 measured after 10 antibiotic-free subculturing by macrodilution method
[39] = system: Staphylococcus aureus; assay: Antimicrobial activity against heterogeneous vancomycin-intermediate Staphylococcus aureus 168 measured on day 20 by macrodilution method; settings: Staphylococcus aureus, 168, 480 h
[40] = system: Staphylococcus aureus; assay: Antimicrobial activity against heterogeneous vancomycin-intermediate Staphylococcus aureus 168 measured on day 10 by macrodilution method; settings: Staphylococcus aureus, 168, 240 h
[41] = system: Staphylococcus aureus; assay: Antimicrobial activity against heterogeneous vancomycin-intermediate Staphylococcus aureus 168 measured on day 50 by macrodilution method
[42] = system: Staphylococcus aureus; assay: Antimicrobial activity against methicillin-resistant Staphylococcus aureus 525 after 50 passages by macrodilution method
[43] = system: Staphylococcus aureus; assay: Antimicrobial activity against vancomycin-resistant Staphylococcus aureus 510 measured on day 20 by macrodilution method; settings: Staphylococcus aureus, 510, 480 h
[44] = system: Staphylococcus aureus; assay: Antimicrobial activity against vancomycin-intermediate Staphylococcus aureus 1287 measured on day 50 by macrodilution method
[45] = system: Staphylococcus aureus; assay: Antimicrobial activity against methicillin-resistant Staphylococcus aureus 547 after 48 passages by macrodilution method
[46] = system: Staphylococcus aureus; assay: Antimicrobial activity against methicillin-susceptible Staphylococcus aureus 540 measured on day 35 by macrodilution method
[47] = system: Staphylococcus aureus; assay: Antimicrobial activity against heterogeneous vancomycin-intermediate Staphylococcus aureus 873 measured on day 35 by macrodilution method
[48] = system: Staphylococcus aureus; assay: Antimicrobial activity against heterogeneous vancomycin-intermediate Staphylococcus aureus 168 after 50 passages by macrodilution method
[49] = system: Staphylococcus aureus; assay: Antimicrobial activity against vancomycin-intermediate Staphylococcus aureus 1287 measured on day 15 by macrodilution method; settings: Staphylococcus aureus, 1287, 360 h
[50] = system: Staphylococcus aureus; assay: Antimicrobial activity against methicillin-susceptible Staphylococcus aureus 540 measured on day 15 by macrodilution method; settings: Staphylococcus aureus, 540, 360 h
[51] = system: Staphylococcus aureus; assay: Antimicrobial activity against vancomycin-resistant Staphylococcus aureus 509 after 28 passages by macrodilution method
[52] = system: Staphylococcus aureus; assay: Antimicrobial activity against heterogeneous vancomycin-intermediate Staphylococcus aureus 168 measured on day 35 by macrodilution method
[53] = system: Staphylococcus aureus; assay: Antimicrobial activity against methicillin-resistant Staphylococcus aureus 525 measured on day 35 by macrodilution method
[54] = system: Staphylococcus aureus; assay: Antimicrobial activity against heterogeneous vancomycin-intermediate Staphylococcus aureus 873 measured on day 45 by macrodilution method
[55] = system: Staphylococcus aureus; assay: Antimicrobial activity against methicillin-susceptible Staphylococcus aureus 543 measured on day 10 by macrodilution method; settings: Staphylococcus aureus, 543, 240 h
[56] = system: Staphylococcus aureus; assay: Antimicrobial activity against methicillin-resistant Staphylococcus aureus 525 measured on day 45 by macrodilution method
[57] = system: Staphylococcus aureus; assay: Antimicrobial activity against methicillin-susceptible Staphylococcus aureus 540 measured on day 20 by macrodilution method; settings: Staphylococcus aureus, 540, 480 h
[58] = system: Staphylococcus aureus; assay: Antimicrobial activity against vancomycin-intermediate Staphylococcus aureus 1287 measured on day 5 by macrodilution method; settings: Staphylococcus aureus, 1287, 120 h
[59] = system: Staphylococcus aureus; assay: Antimicrobial activity against vancomycin-resistant Staphylococcus aureus 510 measured on day 30 by macrodilution method
[60] = system: Staphylococcus aureus; assay: Antimicrobial activity against methicillin-resistant Staphylococcus aureus 547 measured on day 35 by macrodilution method
[61] = system: Staphylococcus aureus; assay: Antimicrobial activity against methicillin-resistant Staphylococcus aureus 547 measured on day 15 by macrodilution method; settings: Staphylococcus aureus, 547, 360 h
[62] = system: Staphylococcus aureus; assay: Antimicrobial activity against methicillin-resistant Staphylococcus aureus 547 measured on day 30 by macrodilution method
[63] = system: Staphylococcus aureus; assay: Antimicrobial activity against heterogeneous vancomycin-intermediate Staphylococcus aureus 168 measured on day 45 by macrodilution method

Measured: MIC

CC(=O)NC[C@H]1CN(c2ccc(N3CCOCC3)c(F)c2)C(=O)O1 [LINEZOLID]
32 µg/mL: [7] | [18] | [20] | [30] | [37] | [45] | [46]
8 µg/mL: [2] | [4] | [5] | [10] | [11] | [12] | [13] | [17] | [25] | [31] | [32] | [33] | [34] | [36] | [38] | [39] | [40] | [43] | [47] | [49] | [52] | [54] | [55] | [58] | [59] | [61] | [63]
16 µg/mL: all other assays above
